Legend:
[1] = system: HBV; test: serum HBV DNA level during antiviral therapy, patient A (post-OLT); assay type: in vivo, Hepatitis B Virus
Text: The patient was transplanted because of end-stage liver failure due to chronic HBV infection. The initial post transplant course was unremarkable but by 5 months there was evidence of recurrent infection and very high levels of viral replication and deteriorating liver function (12). The histological picture was consistent with fibrosing cholestatic hepatitis. Antiviral treatment was commenced approximately 6 months post-OLT. Initially, the patient received intravenous (iv) ganciclovir (GCV; 10 mg/kg/day) in combination with iv foscarnet (PFF; 50-125 mg/kg/day; the dose depending on renal function) (12). This is the treatment of GCV+PFF described in FIG. 2 which lasted for 86 days. Maintenance iv GCV (3.3-6.7 mg/kg/day) three times per week was commenced on day 87 of antiviral treatment (GCV in FIG. 2). Oral famciclovir (250 mg, twice daily) was commenced on day 446 of therapy (FCV [I] in FIG. 2) which was increased to 500 mg twice daily (FCV [II] in […]) on day 500. The patient is currently on this treatment regime. The clinical and virological details of this patient preceding famciclovir therapy have been reported (12).
Serum samples were routinely collected and stored at −70° C. Informed consent was obtained from the patient to use these samples for research purposes. […] The 5 samples chosen for additional studies cover a period of almost four years.
Hepatitis B surface antigen (HbsAg), hepatitis B e antigen (HbeAg), anti-HBe, hepatitis B core antigen (HbcAg) specific IgG and IgM, hepatitis A specific IgM, hepatitis delta antigen and antibody, and anti-hepatitis C virus antibody were measured using commercially available immunoassays (Abbott Laboratories, North Chicago, Ill.). Only the HBV markers were positive. Hepatitis B viral DNA levels were measured and quantified using a capture hybridisation assay according to the manufacturer's directions (Digene Diagnostics Inc., Beltsville, Md.).
This reduction in viraemia was associated with clinical, biochemical and histological improvement (12). […] However, the level of HBV DNA gradually rose over time from 3,000 pg/ml on day 600 (154 days of famciclovir), to 8,800 pg/ml on day 816 (370 days famciclovir), peaking at 29,000 pg/ml on day 1302 (856 days of famciclovir), then stabilising at around 12,000 pg/ml on day 1329 (883 days of famciclovir). […] There was a 1.5 to 2 fold rise in ALT levels over the same time interval (FIG. 2) and no change in clinical status.

[2] = system: HBV DNA polymerase-reverse transcriptase; settings: in vitro; cited from earlier work
[3] = system: duck HBV; settings: in vitro; cited from earlier work
[4] = system: duck HBV virus; settings: oral, in vivo; cited from earlier work
[5] = system: HBV; settings: in man, patient with severe hepatitis B following OLT; cited from earlier work
[6] = system: HBV; test: response to antiviral treatment, patient C; assay type: in vivo, Hepatitis B Virus
Text: Patient B was undergoing long term famciclovir treatment (>850 days). The amino acid change selected during famciclovir treatment is shown as HBV (patient B) in FIG. 5. […] The HBV isolated during FCV treatment from patient C, is shown as HBV (patient C-FCV). All 3TC resistance mutations which developed during treatment with 3TC is shown as HBV (patient C-3TC). […] A mutation of Met 550 to Ile in the YMDD motif was detected from HBV isolated 32 days (333 days post treatment) after the HBV containing the Thr-Ser substitution was isolated.

[7] = system: HBV DNA polymerase; test: endogenous HBV DNA polymerase assay, PCV-TP sensitivity; assay type: biochemical, Hepatitis B Virus; settings: 100 μmol/L PCV-TP, serum HBV of patient A
Description: (§1) Samples of serum (100 μl) were applied to a 20% w/v sucrose cushion in TNE (20 mmol/L Tris-HCl pH 7.4, 150 mmol/L NaCl2 1 mmol/L EDTA) and centrifuged at 200,000 g for 3 hr at 10° C. using an SW41 rotor in a Beckman Model L8 ultracentrifugc. The pellet was resuspended in 50 mmol/L TRIS-HCl pH 7.5 containing 1.5% v/v Triton-X100, 100 mmol/L Kcl and 0.01% v/v 2-mercaptoethanol and allowed to stand overnight at 4° C. Small aliquots of the suspension were assayed for endogenous HBV DNA polymerase activity essentially as described by Price et al (16). Each assay was performed in a total volume of 30 μl which contained 20 μl of the partly purified HBV and (final concentrations) 30 mmol/L Tris-HCl pH 7.5, 30 mmol/L MgCl2, 10 μmol/L each dATP, dTTP and dGTP, and 0.01 μM [α-^32P]-dCTP (3,000 Ci/mmol) (Dupont NEN, Boston, Mass.). To test for penciclovir triphosphate (PCV-TP) sensitivity, paired assays were performed on each sample, with an excess (100 μmol/L penciclovir-triphosphate included in the reaction mixture in one assay of each pair. After 2 hr at 37° C., reactions were stopped by spotting 20 μl aliquots of each reaction mix onto 25 mm diameter glass fibre discs (Advantex, Tokyo, Japan) which had been pre-soaked in 10% w/v trichloroacetic acid (TCA). Discs were dried before washing in ice-cold 10% w/v TCA containing 10 mmol/L sodium pyrophosphate.
(§2) Three further 10 min. washes in cold 5% v/v TCA followed. The washed discs were finally rinsed in absolute ethanol, air dried, and counted for radioactivity. Inhibition of HBV DNA polymerase activity by PCV-TP was expressed as the percentage difference in activity in the assay mix containing PCV-TP compared to the matched control. Because of limited sample amounts, it was not possible to standardize enzyme activity or to perform replicate assays. Despite the inherent variability of the assay, a general time related decrease in sensitivity of the HBV DNA polymerase to PCV-TP was evident (see Table 1).

[8] = target: T1, HBV DNA polymerase (Hepatitis B virus genotype D subtype ayw, UniProt P03156, L515M/V508L); test: as above; assay type: biochemical; settings: 100 μmol/L PCV-TP, serum HBV of patient A
T1 construct: Small aliquots of the suspension were assayed for endogenous HBV DNA polymerase activity; from tissue; host or cells: patient serum; virions pelleted through a 20% sucrose cushion and treated with Triton X-100
T1 sequence (P03156 whole entry V508L/L515M): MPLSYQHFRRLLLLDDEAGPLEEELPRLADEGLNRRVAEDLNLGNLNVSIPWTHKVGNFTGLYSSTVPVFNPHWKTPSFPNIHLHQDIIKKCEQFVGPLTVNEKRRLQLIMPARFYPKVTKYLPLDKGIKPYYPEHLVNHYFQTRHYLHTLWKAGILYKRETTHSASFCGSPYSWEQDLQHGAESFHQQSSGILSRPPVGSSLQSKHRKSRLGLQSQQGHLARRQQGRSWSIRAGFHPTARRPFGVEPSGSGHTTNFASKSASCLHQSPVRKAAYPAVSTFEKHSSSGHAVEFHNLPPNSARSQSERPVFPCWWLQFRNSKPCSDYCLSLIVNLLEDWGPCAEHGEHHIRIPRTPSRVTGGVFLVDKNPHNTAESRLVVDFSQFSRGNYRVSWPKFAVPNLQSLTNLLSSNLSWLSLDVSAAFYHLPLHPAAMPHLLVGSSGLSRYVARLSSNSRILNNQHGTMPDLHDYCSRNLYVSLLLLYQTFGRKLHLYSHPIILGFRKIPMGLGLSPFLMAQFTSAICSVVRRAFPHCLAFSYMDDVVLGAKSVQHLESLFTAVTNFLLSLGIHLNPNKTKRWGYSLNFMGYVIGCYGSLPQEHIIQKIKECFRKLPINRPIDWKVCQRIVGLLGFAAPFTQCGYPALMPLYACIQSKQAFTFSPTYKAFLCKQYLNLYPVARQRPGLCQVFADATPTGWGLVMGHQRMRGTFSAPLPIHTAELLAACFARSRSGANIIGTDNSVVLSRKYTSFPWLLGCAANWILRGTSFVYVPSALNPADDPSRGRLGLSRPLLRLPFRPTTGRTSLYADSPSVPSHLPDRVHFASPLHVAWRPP
Description: as §1, §2

Q: For `Nc1nc(O)c2ncn(COC(CO)CO)c2n1` [GCV, ganciclovir], which “levels of HBV DNA” value ([1]; maintenance iv GCV from day 87, over 359 days) is on record?
A: fluctuating levels of HBV DNA

Q: What does the source list for `Nc1nc2c(ncn2CCC(CO)CO)c(=O)[nH]1` [Peniciclovir, penciclovir]?
A: HBV DNA polymerase-reverse transcriptase activity [2]: inhibit; activity against duck HBV DNA synthesis [3]: potent inhibitory activity

Q: Which “level of HBV DNA” value ([1]; day 600 (154 days of famciclovir)) does the source give for `CC(=O)OCC(CCn1cnc2cnc(N)nc21)COC(C)=O` [famciclovir] here?
A: 3,000 pg/ml

Q: What about the “level of HBV DNA” value ([1]; day 816 (370 days famciclovir)) of the same molecule?
A: 8,800 pg/ml

Q: What about the “level of HBV DNA” value ([1]; day 1302 (856 days of famciclovir), peak) of the same molecule?
A: 29,000 pg/ml

Q: And the “level of HBV DNA” value ([1]; day 1329 (883 days of famciclovir))?
A: around 12,000 pg/ml

Q: And the “HBV DNA change” value ([1]; dose increase to 500 mg twice daily on day 500 (FCV[II]))?
A: decrease in HBV DNA

Q: And the “HBV DNA change” value ([1]; switch to oral famciclovir 250 mg twice daily on day 446 (FCV[I]))?
A: rise in HBV DNA

Q: What about the “intra-hepatic replication of duck HBV virus” value [4] of the same molecule?
A: inhibit

Q: And the “HBV DNA replication” value [5]?
A: reduce HBV DNA replication

Q: What about the response to treatment [6] of the same molecule?
A: did not respond

Q: For penciclovir triphosphate [PCV-TP], which “Inhibition of HBV DNA polymerase by PCV-TP” value (from here on “Inhibition”) ([7]; day 600 of antiviral treatment (154 days famciclovir)) is on record?
A: 30%

Q: And the “Inhibition” value ([7]; pretreatment sample)?
A: 40%

Q: What about the “Inhibition” value ([8]; day 816 of antiviral treatment (370 days famciclovir), Val519Leu/Leu526Met) of the same molecule?
A: 0%

Q: What about the “Inhibition” value ([8]; day 1329 of antiviral treatment (883 days famciclovir)) of the same molecule?
A: 0%

From USRE40233E1, “Viral variants and methods for detecting same” (Melbourne Health, priority 1996, dated 2008)
